Experimental data reported in patent US20250186396A1, “COMPOSITIONS AND METHODS FOR THE TREATMENT OF GLIOBLASTOMA WITH A DUAL TARGETING ANTI-TUMOR COMPOSITION” (Northwestern University, priority 2023, published 2025).

Assays:
OLFML3 = assay: Immunoblots for OLFML3 in GBM cells and GSCs; format: cell-based, human and mouse; details: immunoblot
Protocol: Cell Culture. The GBM cell lines U87, U251, SF763, LN229, and CT2A, as well as 293T cells were cultured in Dulbecco's Modified Eagle's Medium (DMEM; Gibco, #11995-065). The mouse glioma cell line GL261 cells and SIM-A9 microglia were cultured in Dulbecco's Modified Eagle Medium-Ham's F12 medium (Gibco, #10565-018). HMC3 microglia were cultured in Eagle's Minimum Essential Medium (ATCC, #30-2003). THP-1 macrophages were cultured in RPMI 1640 medium (Gibco, #11875093). All cell lines were cultured in the indicated medium containing 10% fetal bovine serum (FBS; Fisher Scientific, #16140071) and 1:100 antibiotic-antimycotic (Gibco, #15140-122), and were purchased from the American Type Culture Collection (ATCC). Human GSCs (GSC23 and GSC7-10) and mouse GBM tumor-derived 005 GSCs and QPP7 GSCs were cultured in neural stem cell (NSC) proliferation media (Millipore, #SCM005) containing 20 ng/mL epidermal growth factor (EGF; PeproTech, #AF-100-15) and basic fibroblast growth factor (bFGF; PeproTech, #100-18B). Human GSCs were gifted by Dr. Frederick F. Lang from the Brain Tumor Center (The University of Texas MD Anderson Cancer Center). 005 GSCs and QPP7 GSCs were provided by Dr. Samuel D. Rabkin (Massachusetts General Hospital) and Dr. Jian Hu (The University of Texas MD Anderson Cancer Center), respectively. PTEN CRISPR KO in SF763 and LN229 cells were generated. […]

[1] = test system: U87, PTEN-KO SF763 cells and 005 GSCs; assay: Proliferation (CFSE) and colony formation assays; format: cell-based; details: BAPN 200 μM or SR9009 5 μM
Protocol: Proliferation (CFSE) assay. Cell proliferation was assessed using the CellTrace carboxy fluorescein succinimidyl ester (CFSE) Cell Proliferation Kit (Invitrogen, #C34554). Briefly, 1×10^6 cells were collected and incubated with CFSE working solution (1:1,000) for 20 minutes at 37° C. The staining was stopped by adding complete cell culture media. After washing, cells were cultured for 3 days with or without the treatment of BAPN (Sigma-Aldrich, #B-A3134, 200 μM), or SR9009 (Cayman, #11929, 5 μM) in the dark and used for flow cytometry analysis. The percentage of CFSE positive peaks over the undivided peak (generation 0) was analyzed using FlowJo v10.8.1.
Colony formation assay. 1×10^3 GBM cells were seeded in each well of 6-well plates with or without the treatment of BAPN (Sigma-Aldrich, #B-A3134, 200 μM), or SR9009 (Cayman, #11929, 5 μM). After 7-10 days, cells were fixed and stained with 0.5% crystal violet in 25% methanol for 1 hour. After three times washing by PBS, the plates were scanned, and the colony number was counted using ImageJ.

| Compound | LOX or P65 inhibition-induced OLFML3 upregulation (OLFML3; U87 and PTEN-KO SF763 cells, SR9009 5 μM with BAPN 200 μM or SC75741 5 μM) | GBM cell proliferation [1] | expression of OLFML3 (OLFML3; human (U87, PTEN-KO SF763, GSC23, GSC7-10) and mouse (CT2A, 005 GSCs) cells, BAPN at indicated concentrations) |
| --- | --- | --- | --- |
| CCOC(=O)N1CCC(CN(Cc2ccc(Cl)cc2)Cc2ccc([N+](=O)[O-])s2)C1 (stereo not shown) [SR9009] | rescued | impaired |  |
| N#CCCN [BAPN, β-aminopropionitrile] |  | had no such effect | increased |
